Measured values published in ChEMBL document CHEMBL6153047, “Sulfilimines from a Medicinal Chemist's Perspective: Physicochemical and in Vitro Parameters Relevant for Drug Discovery” (J Med Chem, 2025).
Values after ≈ are worked out from the molar mass of the structure shown.

Assays:
[1] = Lipophilicity, logD of compound at pH 7.4 by UPLC-UV-MS analysis; type: physicochemical; conditions: buffer
[2] = Chemical stability assessed as compound decomposition at pH 1 and 40 degreeC measured after 3 days by HPLC-UV analysis; type: physicochemical; conditions: buffer, time 3 day, read-out: Drug degradation
[3] = Chemical stability assessed as compound decomposition at pH 4 and 40 degreeC measured after 3 days by HPLC-UV analysis; type: physicochemical; conditions: buffer, time 3 day, read-out: Drug degradation
[4] = Chemical stability assessed as compound decomposition at pH 7.4 and 40 degreeC measured after 3 days by HPLC-UV analysis; type: physicochemical; conditions: buffer, time 3 day, read-out: Drug degradation
[5] = Chemical stability assessed as compound decomposition at pH 10 and 40 degreeC measured after 3 days by HPLC-UV analysis; type: physicochemical; conditions: buffer, time 3 day, read-out: Drug degradation
[6] = Aqueous solubility of compound at pH 6.8 incubated for 24 hrs by LC-UV analysis; type: physicochemical; conditions: buffer, pH 6.8, 24 h
[7] = Stability in human liver microsomes assessed as hepatic extraction ratio at 1 uM preincubated with compound followed by NADPH addition by LC-MS/MS analysis; type: ADME, Microsome; conditions: read-out: ERH
[8] = Stability in mouse liver microsomes assessed as hepatic extraction ratio at 1 uM preincubated with compound followed by NADPH addition by LC-MS/MS analysis; type: ADME, Microsome; conditions: read-out: ERH
[9] = Permeability across apical to basal side in human Caco-2 cells measured upto 2 hrs; type: ADME, cell-based; conditions: caco-2, 2 h
[10] = Stability in human hepatocytes assessed as hepatic extraction ratio at 1 uM incubated for 6 hrs by HPLC-MS/MS analysis; type: ADME, cell-based, Hepatocyte; conditions: read-out: ERH
[11] = Efflux ratio in human Caco-2 cells measured upto 2 hrs; type: ADME, cell-based; conditions: caco-2, 2 h
[12] = Apparent permeability of compound incubated for 5 hrs by PAMPA assay; type: ADME
[13] = Protein binding in human plasma at 1 uM incubated for 5 hrs by rapid equilibrium dialysis; type: ADME, cell-free
[14] = Dissociation constant, pKa of compound by UV spectroscopy; type: physicochemical

logD [1]	degraded at 72 h [2] [%]	degraded at 72 h [3] [%]	degraded at 72 h [4] [%]	degraded at 72 h [5] [%]	solubility [6] [µg/mL]	hepatic extraction ratio at 1 µM [7]	hepatic extraction ratio at 1 µM [8]	permeability [9]	hepatic extraction ratio at 6 h, 1 µM [10]	Ratio [11]	Papp at 5 h [12] [×10⁻⁶ cm/s]	PPB [13] [%]	pKa [14]	logD ([1]; read-out: logD)	Structure (SMILES)
3.5	0.9	4	4	3	51 (≈ 161 µM)	< 0.23	0.59	90 10^-6 cm/s	0.16	0.7	–	–	–	–	CC(C)(C)C(=O)/N=S(\c1ccc(C(F)(F)F)cc1)C1CC1 (stereo unspecified)
0.7	17	5	13	97	–	< 0.23	< 0.23	–	0.17	0.9	–	–	–	–	CCS(=N)c1ccc(C(F)(F)F)cc1 (stereo unspecified)
3.5	80	2	9	7	41 (≈ 133 µM)	> 0.89	> 0.88	43 10^-6 cm/s	0.73	0.7	–	–	7.2	–	FC(F)(F)c1ccc(/S(=N\c2ccccc2)C2CC2)cc1 (stereo unspecified)
1.7	20	8	7	8	38 (≈ 138 µM)	< 0.23	< 0.23	85 10^-6 cm/s	0.1	0.7	–	–	–	–	CC(=O)/N=S(\c1ccc(C(F)(F)F)cc1)C1CC1 (stereo unspecified)
2.1	27	10	10	11	26 (≈ 89.3 µM)	< 0.23	0.38	88 10^-6 cm/s	0.29	0.8	–	–	–	–	COC(=O)/N=S(\c1ccc(C(F)(F)F)cc1)C1CC1 (stereo unspecified)
2.2	72	9	< 0.1	< 0.1	42 (≈ 163 µM)	< 0.23	0.43	100 10^-6 cm/s	0.18	0.7	–	–	–	–	N#C/N=S(\c1ccc(C(F)(F)F)cc1)C1CC1 (stereo unspecified)
2.3	–	–	–	–	> 47	–	–	–	–	–	–	–	–	–	CS(=O)(=O)c1ccc(C(F)(F)F)cc1

More lines, now with the values behind:

Structure (SMILES)	logD [1]	degraded at 72 h [2] [%]	degraded at 72 h [3] [%]	degraded at 72 h [4] [%]	degraded at 72 h [5] [%]	solubility [6] [µg/mL]	hepatic extraction ratio at 1 µM [7]	hepatic extraction ratio at 1 µM [8]	permeability [9]	hepatic extraction ratio at 6 h, 1 µM [10]	Ratio [11]	Papp at 5 h [12] [×10⁻⁶ cm/s]	PPB [13] [%]	pKa [14]	logD ([1]; read-out: logD)
C[S+]([O-])c1ccc(C(F)(F)F)cc1 (stereo unspecified)	1.9	–	–	–	–	> 46	–	–	130 10^-6 cm/s	0.19	0.8	–	–	–	–
Cc1ccc(NC(=O)c2ccc(P(C)(C)=O)cc2)cc1Nc1nccc(-c2cccnc2)n1	1.4	–	–	–	–	58 (≈ 127 µM)	< 0.23	0.35	–	< 0.04	> 100	0.043	83.8	–	–
CC(=O)/N=S(/c1ccccc1)c1ccc(C)cc1 (stereo unspecified)	2	22	5	4	4	> 52	< 0.23	0.63	85 10^-6 cm/s	0.26	0.8	–	–	–	–
CS(=N)(=O)c1ccc(C(F)(F)F)cc1 (stereo unspecified)	1.5	–	–	–	–	> 50	< 0.23	< 0.23	–	0.08	–	–	–	2.5	–
CCOC(=O)/C(=S(/NC(=O)C(C)(C)C)c1ccccc1)P(=O)(OCC)OCC (stereo unspecified)	3	57	< 0.5	< 0.5	< 0.5	> 87	> 0.23	0.41	25 10^-6 cm/s	–	1.9	–	–	–	–
Cc1ccc(S(=O)(=NC(=O)C(C)(C)C)c2ccccc2)cc1 (stereo unspecified)	4.2	16	0	0	0	< 1	0.61	> 0.88	51 10^-6 cm/s	0.33	0.7	–	–	–	–
N=S(c1ccc(C(F)(F)F)cc1)c1cccnc1 (stereo unspecified)	–	4	1	3	1	49 (≈ 181 µM)	< 0.23	0.26	93 10^-6 cm/s	0.08	0.9	–	–	–	–
COC(=O)C(C(=O)OC)=S(NC(=O)C(C)(C)C)c1ccccc1 (stereo unspecified)	2.5	58	< 0.1	6	7	> 76	> 0.89	0.63	> 10 10^-6 cm/s	–	< 1	–	–	–	–
Cc1ccc(S(=N)C2CC2)cc1 (stereo unspecified)	–	8	3	0.5	7	27 (≈ 151 µM)	< 0.23	< 0.23	–	0.57	0.7	–	–	10.9	0.3
COc1ccc(/S(=N/C(=O)C(C)(C)C)c2ccc(C)cc2)cc1 (stereo unspecified)	4	< 0.5	2	2	1	59 (≈ 179 µM)	0.44	> 0.88	72 10^-6 cm/s	0.46	0.7	–	–	–	–
Cc1ccc(S(=O)(=O)c2ccccc2)cc1	3.3	–	–	–	–	–	–	–	39 10^-6 cm/s	0.78	0.6	–	–	–	–
Cc1ccc(S(=N)(=O)c2ccccc2)cc1 (stereo unspecified)	–	< 0.5	< 0.5	< 0.5	< 0.5	> 47	0.45	0.66	93 10^-6 cm/s	0.46	0.8	–	–	2.4	–
COc1ccc(/S(C)=N\C(=O)C(C)(C)C)cc1 (stereo unspecified)	2	–	–	–	–	–	0.27	0.65	69 10^-6 cm/s	0.58	0.8	–	–	–	–
